Test system: KRAS PDC multicell spheroid viability
Assay: Anticancer human tumor 825966-067-R-J1-PDC patient-derived colon carcinoma cell line growth inhibition [KRAS2]
Details: for IC50: curve of first compound; for viability, T/C: stronger effect = lower value
Method in brief: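 Combination screen of spheroid viability in tumor-cell co-cultures with endothelial (HUVEC) and mesenchymal stem cell stroma. Each agent was tested in half-log dilutions, topping at clinical Cmax or at 10 microM without a known Cmax.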

[1] = second compound 0.1 µM, first compound 0.00316 µM
[2] = second compound 0.1 µM, first compound 0.01 µM
[3] = second compound 0.1 µM, first compound 0.0316 µM
[4] = second compound 0.1 µM, first compound 0.1 µM
[5] = second compound 0.316 µM, first compound 0.00316 µM
[6] = second compound 0.316 µM, first compound 0.01 µM
[7] = second compound 0.316 µM, first compound 0.0316 µM
[8] = second compound 0.316 µM, first compound 0.1 µM
[9] = second compound 1 µM, first compound 0.00316 µM
[10] = second compound 1 µM, first compound 0.01 µM
[11] = second compound 1 µM, first compound 0.0316 µM
[12] = second compound 1 µM, first compound 0.1 µM
[13] = second compound 3.16 µM, first compound 0.00316 µM
[14] = second compound 3.16 µM, first compound 0.01 µM
[15] = second compound 3.16 µM, first compound 0.0316 µM
[16] = second compound 3.16 µM, first compound 0.1 µM
[17] = second compound 10 µM, first compound 0.00316 µM
[18] = second compound 10 µM, first compound 0.01 µM
[19] = second compound 10 µM, first compound 0.0316 µM
[20] = second compound 10 µM, first compound 0.1 µM
[21] = second compound 0.1 µM, first compound 0.000316 µM
[22] = second compound 0.1 µM, first compound 0.001 µM
[23] = second compound 0.316 µM, first compound 0.000316 µM
[24] = second compound 0.316 µM, first compound 0.001 µM
[25] = second compound 1 µM, first compound 0.000316 µM
[26] = second compound 1 µM, first compound 0.001 µM
[27] = second compound 3.16 µM, first compound 0.000316 µM
[28] = second compound 3.16 µM, first compound 0.001 µM
[29] = second compound 10 µM, first compound 0.000316 µM
[30] = second compound 10 µM, first compound 0.001 µM
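Also: spheroids exposed to compounds for 7 days.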
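For viability, T/C in this document: 100% = DMSO vehicle control viability.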

SMILES	IC50 (second compound 0.1 µM) [nM]	IC50 (second compound 0.316 µM) [nM]	IC50 (second compound 1 µM) [nM]	IC50 (second compound 3.16 µM) [nM]	IC50 (second compound 10 µM) [nM]	viability, T/C [1] [%]	viability, T/C [2] [%]	viability, T/C [3] [%]	viability, T/C [5] [%]	viability, T/C [6] [%]	viability, T/C [7] [%]	viability, T/C [9] [%]	viability, T/C [10] [%]	viability, T/C [11] [%]	viability, T/C [13] [%]	viability, T/C [14] [%]	viability, T/C [15] [%]	viability, T/C [17] [%]	viability, T/C [18] [%]	viability, T/C [19] [%]	also measured
CCN1CCN(Cc2ccc(Nc3ncc(F)c(-c4cc(F)c5nc(C)n(C(C)C)c5c4)n3)nc2)CC1 + CNCc1ccccc1-c1csc(C(C)Nc2nc(C)nc3cc(OC)c(OC)cc23)c1	> 1000	> 1000	705	68	< 3.16	98.2	99.1	126	101	128	115	111	122	154	110	127	88.5	0.26	0.29	0.22	viability, T/C [4]: 137%; viability, T/C (second compound 0.1 µM, first compound 0.316 µM): 174%; viability, T/C (second compound 0.1 µM, first compound 1 µM): 123%; viability, T/C [8]: 129%; viability, T/C (second compound 0.316 µM, first compound 0.316 µM): 176%; viability, T/C (second compound 0.316 µM, first compound 1 µM): 78%; viability, T/C [12]: 173%; viability, T/C (second compound 1 µM, first compound 0.316 µM): 147%; viability, T/C (second compound 1 µM, first compound 1 µM): 10.1%; viability, T/C [16]: 30.9%; viability, T/C (second compound 3.16 µM, first compound 0.316 µM): 0.29%; viability, T/C (second compound 3.16 µM, first compound 1 µM): 0.27%; viability, T/C [20]: 0.18%; viability, T/C (second compound 10 µM, first compound 0.316 µM): 0.15%; viability, T/C (second compound 10 µM, first compound 1 µM): 0.22%
CC(=O)Nc1cccc(-n2c(=O)n(C3CC3)c(=O)c3c(Nc4ccc(I)cc4F)n(C)c(=O)c(C)c32)c1 + CC1OCC2(CCN(c3cnc(Sc4ccnc(N)c4Cl)c(N)n3)CC2)C1N	> 31.6	> 31.6	4.52	0.827	0.12	103	93.5	56.5	116	64.8	49.6	61.2	27.2	21.5	28.2	18.4	15.8	6.92	5.11	14.4	viability, T/C (second compound 0.1 µM, first compound 0.0001 µM): 93.2%; viability, T/C [21]: 98.9%; viability, T/C [22]: 125%; viability, T/C (second compound 0.316 µM, first compound 0.0001 µM): 96.3%; viability, T/C [23]: 91.8%; viability, T/C [24]: 110%; viability, T/C (second compound 1 µM, first compound 0.0001 µM): 80.8%; viability, T/C [25]: 128%; viability, T/C [26]: 105%; viability, T/C (second compound 3.16 µM, first compound 0.0001 µM): 97.1%; viability, T/C [27]: 108%; viability, T/C [28]: 39.6%; viability, T/C (second compound 10 µM, first compound 0.0001 µM): 57.4%; viability, T/C [29]: 9.62%; viability, T/C [30]: 7.27%
CN(C)C/C=C/C(=O)Nc1cc2c(Nc3ccc(F)c(Cl)c3)ncnc2cc1O[C@H]1CCOC1 + C=CC(=O)N1CCN(c2nc(=O)n(-c3c(C)ccnc3C(C)C)c3nc(-c4c(O)cccc4F)c(F)cc23)C(C)C1	> 100	> 100	> 100	> 100	> 100	110	101	94.5	91.8	101	103	91.2	112	99.3	93.2	107	89	94.9	86.4	83.5	viability, T/C [21]: 104%; viability, T/C [22]: 114%; viability, T/C [4]: 106%; viability, T/C [23]: 97.8%; viability, T/C [24]: 106%; viability, T/C [8]: 117%; viability, T/C [25]: 110%; viability, T/C [26]: 101%; viability, T/C [12]: 107%; viability, T/C [27]: 98.8%; viability, T/C [28]: 64.3%; viability, T/C [16]: 103%; viability, T/C [29]: 86.4%; viability, T/C [30]: 73.5%; viability, T/C [20]: 84.1%
